Counter-ions that a name gives are not always drawn.
What was measured:
[1] = patch pre-formulation, saturated concentration in adhesive; type: physicochemical; conditions: DURO-TAK 87-2051 adhesive; phosphate disodium salt
Method: To each solution, 175 μL of the transdermal adhesive DURO-TAK 87-2051 (51.5 w/v %) was added, and vortexed. Then 2.0 μL of α-tocopherol and 2.5 μL of diethylene glycol monoethyl ether were added and vortexed. The visual solubility was assessed.
To this solution 4 mg of α-tocopherol in 3 mL ethyl acetate was added and 167 μL of the transdermal adhesive DURO-TAK 87-2051 (51.5 w/v %) in 7 mL ethyl acetate with 6 μL diethylene glycol monoethyl ether was also added.
Each solution (3×3 cm) was cast onto the backing (3M™ Scotchpak™ Polyester Backing Film Laminate 9730, UK) to determine the clarity, and the saturation limit of the test agents in the adhesive mixtures.

[2] = chemical stability on storage over 4 weeks; type: physicochemical
Method: The chemical stability of cholecalciferol phosphate acid/disodium salt was assessed in three different conditions over a 4-week period. Aliquots of 2 mg for each sample was stored at room temperature, 4° C., and −20° C. in a glass bottle covered with foil. A 20 mL sample of MeOH and MeOH:water (90:10) was added to cholecalciferol phosphate acid and cholecalciferol phosphate disodium salt, and the concentration and purity were assessed every week by the HPLC method described previously. The peak area was used to calculate sample concentration and the gradient of the data points being used to calculate the degradation rate.

For `C=C1CC[C@H](OP(=O)(O)O)C/C1=C/C=C1\CCC[C@@]2(C)C1CC[C@@H]2[C@H](C)CCCC(C)C` (stereo partly drawn) [Cholecalciferol phosphate disodium salt, cholecalciferol phosphate disodium salt], the “saturated concentration in patch formulation (highest loading without precipitation)” value [1] was 13.57 w/w %, the “change of purity over 4 weeks” value ([2]; all storage conditions) was “less than 1%” and the “degradation over 4 weeks” value ([2]; room temperature, 4° C. and −20° C.) was “did not degrade at any of the storage conditions”.

From US12473310B2, “Vitamin D3 phosphate and pharmaceutically acceptable salts thereof, pharmaceutical compositions comprising the compound and methods for preparing the compound” (King's College London, priority 2020, dated 2025)
